Test results: PubChem BioAssay (NCI)
Values joined by “and” are separate entries in the source; they are usually repeats but may differ in a detail not shown here. Equal entries are not always repeated.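 Protocol summary: plate cells (96-well), add compound at 5 concentrations, incubate 48 h, interpolate endpoints linearly. The concentration for 50% growth inhibition is given as GI50. TGI denotes the concentration required for complete inhibition of growth.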

Key:
Assay in all cases: NCI-60 cell line screen, 48 h
ACHN renal = tested on: ACHN renal
COLO 205 colon = tested on: COLO 205 colon
KM12 colon = tested on: KM12 colon
LOX IMVI melanoma = tested on: LOX IMVI melanoma
NCI-H226 lung = tested on: NCI-H226 lung
SF-268 CNS = tested on: SF-268 CNS
SF-295 CNS = tested on: SF-295 CNS
SK-MEL-2 melanoma = tested on: SK-MEL-2 melanoma
TK-10 renal = tested on: TK-10 renal
UO-31 renal = tested on: UO-31 renal

| SMILES | GI50 (ACHN renal) | TGI (ACHN renal) | GI50 (COLO 205 colon) | TGI (COLO 205 colon) | GI50 (KM12 colon) | TGI (KM12 colon) | GI50 (LOX IMVI melanoma) | TGI (LOX IMVI melanoma) | GI50 (NCI-H226 lung) | TGI (NCI-H226 lung) | GI50 (SF-268 CNS) | TGI (SF-268 CNS) | GI50 (SF-295 CNS) | TGI (SF-295 CNS) | GI50 (SK-MEL-2 melanoma) | TGI (SK-MEL-2 melanoma) | GI50 (TK-10 renal) | TGI (TK-10 renal) | GI50 (UO-31 renal) | TGI (UO-31 renal) |
| --- | --- | --- | --- | --- | --- | --- | --- | --- | --- | --- | --- | --- | --- | --- | --- | --- | --- | --- | --- | --- |
| O=C1NC(=NCc2ccccc2Cl)S/C1=C\c1ccc2ncccc2c1 | 9.54 µM | > 25 µM | 8.04 µM | > 25 µM | > 21.8 µM | > 25 µM | 8.86 µM | > 25 µM | > 18.3 µM | > 25 µM | 18.9 µM | > 25 µM | 9.59 µM | > 25 µM | 8.5 µM | > 22.3 µM | 6.02 µM | > 25 µM | > 13.6 µM | > 25 µM |
| N#CCn1c(=O)c(Oc2ccc(F)cc2F)cc2cnc(NC3CCOCC3)nc21 | 19.5 µM | > 25 µM | > 25 µM | > 25 µM | > 25 µM | > 25 µM | > 25 µM | > 25 µM | > 25 µM | > 25 µM | > 25 µM | > 25 µM | > 25 µM | > 25 µM | > 25 µM | > 25 µM | > 25 µM | > 25 µM | > 19.8 µM | > 25 µM |
| Oc1ccc(Br)cc1C=Nc1cccc(C(F)(F)F)c1 |  | > 100 µM |  | > 100 µM |  | > 100 µM |  | > 100 µM |  | 90.6 µM |  | > 100 µM |  | > 100 µM |  | 49 µM |  | > 100 µM |  | > 100 µM |
| Clc1nccc2c(-c3csc(-c4c[nH]c5ccc(Br)cc45)n3)c[nH]c12 | 2.02 µM | 12.6 µM | 1.8 µM | 5.61 µM | 2.15 µM | 5.7 µM | 1.63 µM | 3.25 µM | 2.4 µM | 13.8 µM | 4.06 µM | 18 µM | 2.48 µM | 5.61 µM | 4.09 µM | 16.4 µM | 4.16 µM | 13.4 µM | 0.932 µM | 11.5 µM |
| O=C(Nc1ccc(Oc2ccc3nc(NC(=O)c4ccco4)[nH]c3c2)cc1)Nc1cc(C(F)(F)F)ccc1F | 1.28 µM | 6.08 µM | 3.02 µM | 11.4 µM | 0.0178 µM | 4.31 µM | 0.537 µM | 6.04 µM | 0.28 µM | 4.02 µM | 2.55 µM | 14.1 µM | 1.76 µM | > 12.2 µM | 0.668 µM | 4.37 µM | 2.57 µM | 12.8 µM | 0.874 µM | 5.27 µM |
| COc1ccc(C(O)c2cc3c(N)c(C(=O)Nc4ccc(Cl)cc4)sc3nc2C)cc1 (configuration not stated) | 3.53 µM | 15.7 µM | 3.99 µM | 23 µM | 1.64 µM | 7.1 µM | 2.08 µM | 13.2 µM | 2.85 µM | 9.47 µM | 3.96 µM | 19.6 µM | 2.14 µM | 11.6 µM | 8.6 µM | 69.6 µM | 7.85 µM | 43.9 µM | 3.8 µM | 23 µM |
| CC(=O)OCC1OC(n2c(=S)n(-c3ccc([N+](=O)[O-])cc3)c(=O)c3ccccc32)C(OC(C)=O)C(OC(C)=O)C1OC(C)=O (configuration not stated) | 20.3 µM and 29.7 µM | 97.9 µM and > 100 µM | 31.2 µM | > 100 µM | 25.5 µM and 17.4 µM | > 75.4 µM and 46.9 µM |  | 51.8 µM and 31.5 µM | 10.1 µM and 20.4 µM | 58.4 µM and 49 µM |  | 62.1 µM and 44.7 µM |  | > 59.8 µM and 62.3 µM | 12 µM and 22.5 µM | 17.4 µM and 58.8 µM | 19.9 µM and 40.3 µM | 65.2 µM and 75.1 µM | 12 µM and 23.2 µM | > 57.5 µM and 60.1 µM |
| c1ccc(-c2oc(-c3ccccc3)c(CN3CCCCC3)c2CN2CCCCC2)cc1 | 2.54 µM | 10.2 µM | 1.45 µM | 5.01 µM | 2.9 µM | 10.4 µM | 3.19 µM | 12.1 µM | 5.19 µM | 22.7 µM | 6.04 µM | 20.6 µM | 2.05 µM | 6.58 µM | 3.72 µM | 15.7 µM | 4.58 µM | 19 µM | 2.13 µM | 11.1 µM |
| COc1cc(/C=C/C(=O)c2cccc(-n3cc(-c4cc(OC)c(OC)c(OC)c4)[nH]c3=O)c2)cc(OC)c1OC | 1.74 µM | 3.3 µM | 1.52 µM | 3.13 µM | 1.12 µM | 2.46 µM | 1.23 µM | 3.48 µM | 14.4 µM | 80.3 µM | 2.2 µM | 7.47 µM | 4.96 µM | 19.5 µM | 3.02 µM | 7.63 µM | 3 µM | 6.68 µM | 0.962 µM | 3.13 µM |
| CSC1=NC(=Nc2c(C)cccc2C)C2(CCC(C(C)(C)C)CC2)N1c1ccc(Cl)cc1 (configuration not stated) | 8.4 µM | > 100 µM | 46.4 µM | > 100 µM | 20.9 µM | > 100 µM | 6.66 µM | > 100 µM | 8.93 µM | > 100 µM | 32.5 µM | > 100 µM | 29.9 µM | > 100 µM | > 100 µM | > 100 µM | 39.8 µM | > 100 µM | 25.2 µM | > 100 µM |
